Results reported in the supplement of paper PMC10307832.

Experiments:
Assay in all cases: relative viability (nuclei count vs DMSO), 5 days (fraction); higher = more cells survive
NCI-H661 = tested on: NCI-H661
Method in brief: (§1)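 Lung cancer cell lines in 1536-well plates were dosed by pin tool the day after seeding, either with one drug alone or with a fixed anchor-drug dose plus five library-drug doses (not always all listed) in √10 steps. After 5 days, cells were fixed and their nuclei stained in one step (final 0.05% Triton X-100, 1% formaldehyde, 1 ug/ml Hoechst), then counted on 4× images. Relative viability is the nuclei count in treated wells divided by that in vehicle wells. Values are medians of duplicate plates.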

BEN = tested on: BEN
Method in brief: as §1

HCC-78 = tested on: HCC-78
Method in brief: as §1

NCI-H1734 = tested on: NCI-H1734
Method in brief: as §1

A-427 = tested on: A-427
Method in brief: as §1

NCI-H3122 = tested on: NCI-H3122
Method in brief: as §1

NCI-H650 = tested on: NCI-H650
Method in brief: as §1

NCI-H1650 = tested on: NCI-H1650
Method in brief: as §1

HOP-62 = tested on: HOP-62
Method in brief: as §1

LC-2-ad = tested on: LC-2-ad
Method in brief: as §1

NCI-H2087 = tested on: NCI-H2087
Method in brief: as §1

NCI-H2023 = tested on: NCI-H2023
Method in brief: as §1

LOU-NH91 = tested on: LOU-NH91
Method in brief: as §1

COR-L 105 = tested on: COR-L 105
Method in brief: as §1

LXF-289 = tested on: LXF-289
Method in brief: as §1

EKVX = tested on: EKVX
Method in brief: as §1

NCI-H596 = tested on: NCI-H596
Method in brief: as §1

HARA = tested on: HARA
Method in brief: as §1

HCC-44 = tested on: HCC-44
Method in brief: as §1

COCC1(CO)C(=O)C2CCN1CC2 (stereo unspecified) [PRIMA-1MET] + CC(C)C[C@H](NC(=O)[C@H](Cc1ccccc1)NC(=O)c1cnccn1)B(O)O [Bortezomib] (partner 0.002 µM)
relative viability (NCI-H661; first compound 0.2 µM): 0.846 | relative viability (NCI-H661; first compound 0.6325 µM): 0.69 | relative viability (NCI-H661; first compound 6.325 µM): 0.817 | relative viability (NCI-H661; first compound 20 µM): 0.623 | relative viability (BEN; first compound 0.2 µM): 0.853 | relative viability (BEN; first compound 0.6325 µM): 0.75 | relative viability (BEN; first compound 6.325 µM): 0.888 | relative viability (BEN; first compound 20 µM): 0.864 | relative viability (HCC-78; first compound 0.2 µM): 0.694 | relative viability (HCC-78; first compound 0.6325 µM): 0.521 | relative viability (HCC-78; first compound 2 µM): 0.452 | relative viability (HCC-78; first compound 6.325 µM): 0.485 | relative viability (HCC-78; first compound 20 µM): 0.0823 | relative viability (NCI-H1734; first compound 0.2 µM): 1.16 | relative viability (NCI-H1734; first compound 0.6325 µM): 0.75 | relative viability (NCI-H1734; first compound 2 µM): 0.812 | relative viability (NCI-H1734; first compound 6.325 µM): 0.967 | relative viability (NCI-H1734; first compound 20 µM): 0.224 | relative viability (A-427; first compound 0.2 µM): 1.09 | relative viability (A-427; first compound 0.6325 µM): 0.881 | relative viability (A-427; first compound 2 µM): 0.901 | relative viability (A-427; first compound 6.325 µM): 0.839 | relative viability (A-427; first compound 20 µM): 0.962 | relative viability (NCI-H3122; first compound 0.2 µM): 0.865 | relative viability (NCI-H3122; first compound 0.6325 µM): 1.01 | relative viability (NCI-H3122; first compound 2 µM): 0.955 | relative viability (NCI-H3122; first compound 6.325 µM): 0.986 | relative viability (NCI-H3122; first compound 20 µM): 0.999 | relative viability (NCI-H650; first compound 0.2 µM): 1.11 | relative viability (NCI-H650; first compound 2 µM): 0.816 | relative viability (NCI-H650; first compound 6.325 µM): 0.508 | relative viability (NCI-H650; first compound 20 µM): 0.117 | relative viability (NCI-H1650; first compound 0.2 µM): 0.207 | relative viability (NCI-H1650; first compound 0.6325 µM): 0.222 | relative viability (NCI-H1650; first compound 2 µM): 0.205 | relative viability (NCI-H1650; first compound 6.325 µM): 0.188 | relative viability (NCI-H1650; first compound 20 µM): 0.197 | relative viability (HOP-62; first compound 0.2 µM): 1.02 | relative viability (HOP-62; first compound 0.6325 µM): 0.648 | relative viability (HOP-62; first compound 2 µM): 0.965 | relative viability (HOP-62; first compound 6.325 µM): 0.736 | relative viability (HOP-62; first compound 20 µM): 0.443 | relative viability (LC-2-ad; first compound 0.2 µM): 1.11 | relative viability (LC-2-ad; first compound 0.6325 µM): 0.981 | relative viability (LC-2-ad; first compound 2 µM): 0.695 | relative viability (LC-2-ad; first compound 6.325 µM): 1.07 | relative viability (LC-2-ad; first compound 20 µM): 0.91 | relative viability (NCI-H2087; first compound 0.2 µM): 1 | relative viability (NCI-H2087; first compound 0.6325 µM): 0.673 | relative viability (NCI-H2087; first compound 2 µM): 0.795 | relative viability (NCI-H2087; first compound 6.325 µM): 0.888 | relative viability (NCI-H2087; first compound 20 µM): 0.647 | relative viability (NCI-H2023; first compound 0.2 µM): 1.17 | relative viability (NCI-H2023; first compound 0.6325 µM): 0.877 | relative viability (NCI-H2023; first compound 2 µM): 0.893 | relative viability (NCI-H2023; first compound 6.325 µM): 0.951 | relative viability (NCI-H2023; first compound 20 µM): 1.02 | relative viability (LOU-NH91; first compound 0.2 µM): 0.452 | relative viability (LOU-NH91; first compound 0.6325 µM): 0.403 | relative viability (LOU-NH91; first compound 2 µM): 0.541 | relative viability (LOU-NH91; first compound 6.325 µM): 0.423 | relative viability (LOU-NH91; first compound 20 µM): 0.485 | relative viability (COR-L 105; first compound 0.2 µM): 1.12 | relative viability (COR-L 105; first compound 0.6325 µM): 0.588 | relative viability (COR-L 105; first compound 2 µM): 0.544 | relative viability (COR-L 105; first compound 6.325 µM): 0.715 | relative viability (COR-L 105; first compound 20 µM): 0.163 | relative viability (LXF-289; first compound 0.2 µM): 0.999 | relative viability (LXF-289; first compound 0.6325 µM): 0.976 | relative viability (LXF-289; first compound 2 µM): 1.12 | relative viability (LXF-289; first compound 6.325 µM): 1 | relative viability (LXF-289; first compound 20 µM): 0.872 | relative viability (EKVX; first compound 0.2 µM): 1.16 | relative viability (EKVX; first compound 0.6325 µM): 0.851 | relative viability (EKVX; first compound 2 µM): 0.943 | relative viability (EKVX; first compound 6.325 µM): 1.06 | relative viability (EKVX; first compound 20 µM): 0.845 | relative viability (NCI-H596; first compound 0.2 µM): 1.11 | relative viability (NCI-H596; first compound 0.6325 µM): 0.93 | relative viability (NCI-H596; first compound 2 µM): 0.803 | relative viability (NCI-H596; first compound 6.325 µM): 1.25 | relative viability (NCI-H596; first compound 20 µM): 0.195 | relative viability (HARA; first compound 0.2 µM): 1.24 | relative viability (HARA; first compound 0.6325 µM): 0.704 | relative viability (HARA; first compound 6.325 µM): 1.07 | relative viability (HARA; first compound 20 µM): 1.14 | relative viability (HCC-44; first compound 0.2 µM): 0.971 | relative viability (HCC-44; first compound 0.6325 µM): 0.76 | relative viability (HCC-44; first compound 2 µM): 0.927 | relative viability (HCC-44; first compound 6.325 µM): 0.911 | relative viability (HCC-44; first compound 20 µM): 0.877
